Columns and labels:
KYSE-150 cell line = assay: cells; conditions: Homo sapiens, KYSE-150, 72 h
Description: Antiproliferative activity against human KYSE-150 cells assessed as inhibition of cell growth incubated for 72 hrs by MTT assay

MDA-MB-231 = assay: cells; conditions: Homo sapiens, MDA-MB-231, 72 h
MDA-MB-435 = assay: cells; conditions: Homo sapiens, MDA-MB-435, 72 h
Description: Antiproliferative activity against human MDA-MB-435 cells assessed as inhibition of cell growth incubated for 72 hrs by MTT assay

in vitro = conditions: human
Description: Cytotoxicity against HUVEC cells assessed as inhibition of cell growth incubated for 72 hrs by MTT assay

HepG2 = assay: cells; conditions: Homo sapiens, HepG2, 72 h
[1] = Metabolic stability in mouse liver microsomes assessed as half-life at 1 uM incubated for 45 mins by LC-MS/MS analysis; type: ADME, Microsome
[2] = Metabolic stability in mouse liver microsomes assessed as parent compound remaining at 1 uM measured after 15 mins by LC-MS/MS analysis; type: ADME, Microsome; conditions: read-out: Stability
[3] = Metabolic stability in rat liver microsomes assessed as half-life at 1 uM incubated for 45 mins by LC-MS/MS analysis; type: ADME, Microsome
[4] = Metabolic stability in human liver microsomes assessed as parent compound remaining at 1 uM measured after 45 mins by LC-MS/MS analysis; type: ADME, Microsome; conditions: read-out: Stability
[5] = Metabolic stability in human liver microsomes assessed as intrinsic clearance at 1 uM incubated for 45 mins by LC-MS/MS analysis; type: ADME, Microsome; conditions: read-out: CLH
[6] = Metabolic stability in rat liver microsomes assessed as parent compound remaining at 1 uM measured after 15 mins by LC-MS/MS analysis; type: ADME, Microsome; conditions: read-out: Stability
[7] = Metabolic stability in rat liver microsomes assessed as parent compound remaining at 1 uM measured after 5 mins by LC-MS/MS analysis; type: ADME, Microsome; conditions: read-out: Stability
[8] = Metabolic stability in human liver microsomes assessed as parent compound remaining at 1 uM measured after 30 mins by LC-MS/MS analysis; type: ADME, Microsome; conditions: read-out: Stability
[9] = Metabolic stability in rat liver microsomes assessed as intrinsic clearance at 1 uM incubated for 45 mins by LC-MS/MS analysis; type: ADME, Microsome; conditions: read-out: CLH
[10] = Metabolic stability in rat liver microsomes assessed as parent compound remaining at 1 uM measured after 30 mins by LC-MS/MS analysis; type: ADME, Microsome; conditions: read-out: Stability
[11] = Metabolic stability in mouse liver microsomes assessed as parent compound remaining at 1 uM measured after 45 mins by LC-MS/MS analysis; type: ADME, Microsome; conditions: read-out: Stability
[12] = Metabolic stability in human liver microsomes assessed as parent compound remaining at 1 uM measured after 15 mins by LC-MS/MS analysis; type: ADME, Microsome; conditions: read-out: Stability
[13] = Metabolic stability in human liver microsomes assessed as parent compound remaining at 1 uM measured after 5 mins by LC-MS/MS analysis; type: ADME, Microsome; conditions: read-out: Stability
[14] = Metabolic stability in rat liver microsomes assessed as parent compound remaining at 1 uM measured after 45 mins by LC-MS/MS analysis; type: ADME, Microsome; conditions: read-out: Stability
[15] = Metabolic stability in mouse liver microsomes assessed as parent compound remaining at 1 uM measured after 30 mins by LC-MS/MS analysis; type: ADME, Microsome; conditions: read-out: Stability
[16] = Metabolic stability in mouse liver microsomes assessed as parent compound remaining at 1 uM measured after 5 mins by LC-MS/MS analysis; type: ADME, Microsome; conditions: read-out: Stability
[17] = Metabolic stability in human liver microsomes assessed as half-life at 1 uM incubated for 45 mins by LC-MS/MS analysis; type: ADME, Microsome
[18] = Metabolic stability in mouse liver microsomes assessed as intrinsic clearance at 1 uM incubated for 45 mins by LC-MS/MS analysis; type: ADME, Microsome; conditions: read-out: CLH

Row | SMILES | IC50 (KYSE-150 cell line) | IC50 (MDA-MB-231) | IC50 (MDA-MB-435) | IC50 at 72 h (in vitro; HUVEC cells) | IC50 (HepG2) | further results
1 | C=CC(=O)Nc1ccc(Cn2cnc3c(-c4cccs4)ncnc32)cc1 | 12.2 µM | 6.18 µM | 15.7 µM | 77.2 µM | 11.1 µM | –
2 | C=C(C)C(=O)Nc1ccc(Cn2cnc3c(Cl)ncnc32)cc1 | 26 µM | 66.3 µM | 29.4 µM | 80.9 µM | 48.4 µM | –
3 | O=C(CCl)Nc1ccc(Cn2cnc3c(Cl)ncnc32)cc1 | 12.3 µM | 21.2 µM | 26.4 µM | 64 µM | 27.3 µM | –
4 | C=CC(=O)Nc1ccc(Cn2cnc3c(Cl)ncnc32)cc1 | 2.95 µM | 2.64 µM | 5.93 µM | 50.5 µM | 2.81 µM | –
5 | C=CC(=O)Nc1ccc(C(=O)n2ccc3cc(Cl)cnc32)cc1 | 10.8 µM | 34.8 µM | 18.5 µM | 80.4 µM | 45 µM | –
6 | C=CC(=O)Nc1cc(Cn2nnc3c(C(=O)OC)cccc32)ccc1F | 13.6 µM | 20.3 µM | 32.5 µM | 64.2 µM | 30.5 µM | –
7 | C=CC(=O)Nc1ccc(C(=O)n2ncc3cccnc32)cc1 | 9.83 µM | 26.7 µM | 33.8 µM | 82.2 µM | 42.6 µM | –
8 | C=CC(=O)Nc1cc(Cn2nnc3c(C(=O)NCC(F)F)cccc32)ccc1F | 16.2 µM | 29.2 µM | 27.9 µM | 50.9 µM | 19.9 µM | –
9 | CC(C)C(=O)Nc1ccc(Cn2cnc3c(Cl)ncnc32)cc1 | 18.9 µM | 7.17 µM | 29.4 µM | 79.6 µM | 27.6 µM | –
10 | C=CC(=O)Nc1ccc(Cn2cnc3c(-c4ccc(F)c(F)c4)ncnc32)cc1 | 14.3 µM | 5.64 µM | 13.2 µM | 75.2 µM | 8.36 µM | –
11 | C=CC(=O)Nc1cc(Cn2nnc3c(C(=O)NCC4CC(F)(F)C4)cccc32)ccc1F | 6.86 µM | 10 µM | 27 µM | 46.2 µM | 29.6 µM | –
12 | CC(C)=CC(=O)Nc1ccc(Cn2cnc3c(Cl)ncnc32)cc1 | 13.3 µM | 7.36 µM | 30.1 µM | 77.1 µM | 19.1 µM | –
13 | C=CC(=O)Nc1ccc(Cn2cnc3c(-c4ccccc4)ncnc32)cc1 | 11.2 µM | 7.22 µM | 12.8 µM | 81.3 µM | 9.34 µM | –
14 | C=CC(=O)Nc1ccc(C(=O)n2ncc3ccc(Br)cc32)cc1 | 6.86 µM | 40 µM | 3.3 µM | 81 µM | 51.1 µM | –
15 | C=CC(=O)Nc1ccc(Cn2cnc3c(-c4cc5ccccc5o4)ncnc32)cc1 | 13.5 µM | 6.53 µM | 20.1 µM | 79.2 µM | 12.2 µM | –
16 | CCC(=O)Nc1ccc(Cn2cnc3c(Cl)ncnc32)cc1 | 13.3 µM | 7.93 µM | 30.1 µM | 80.1 µM | 28.5 µM | –
17 | C=CC(=O)Nc1ccc(Cn2cnc3c(-c4cc5ccccc5s4)ncnc32)cc1 | 8.26 µM | 13.9 µM | 11.1 µM | 79.1 µM | 9.26 µM | –
18 | O=C(c1ccc(F)cc1)C1CCN(CCn2c(=O)[nH]c3ccccc3c2=O)CC1 [KETANSERIN] | – | – | – | – | – | half-life at 1 µM [1]: 9.35 min; remaining at 0.25 h, 1 µM [2]: 38.3%; half-life at 1 µM [3]: 13.2 min; remaining at 0.75 h, 1 µM [4]: 45.9%; CLint scaled at 1 µM [5]: 60.8 mL/min/kg; remaining at 0.25 h, 1 µM [6]: 48.5%; remaining at 5 min, 1 µM [7]: 76.3%; remaining at 0.5 h, 1 µM [8]: 55.1%; CLint scaled at 1 µM [9]: 188 mL/min/kg; remaining at 0.5 h, 1 µM [10]: 24.5%; remaining at 0.75 h, 1 µM [11]: 8.57%; remaining at 0.25 h, 1 µM [12]: 68.5%; remaining at 5 min, 1 µM [13]: 84.7%; remaining at 0.75 h, 1 µM [14]: 14.1%; remaining at 0.5 h, 1 µM [15]: 18.3%; remaining at 5 min, 1 µM [16]: 70.3%; half-life at 1 µM [17]: 28.6 min; CLint scaled at 1 µM [18]: 584 mL/min/kg
19 | C=CC(=O)Nc1ccc(C(=O)n2ccc3c(Cl)ncnc32)cc1 | 10.1 µM | 29.4 µM | 10 µM | 56.1 µM | 40.1 µM | –
20 | CC(Cl)C(=O)Nc1ccc(Cn2cnc3c(Cl)ncnc32)cc1 (stereo unspecified) | 9.46 µM | 9.87 µM | 32.2 µM | 81.8 µM | 17.8 µM | –
21 | O=C(Nc1ccc(Cn2cnc3c(Cl)ncnc32)cc1)C1CC1 | 10.6 µM | 9.64 µM | 31.6 µM | 81.2 µM | 27 µM | –
22 | C=CC(=O)N1CC[C@@H](n2nc(C#Cc3cc(OC)cc(OC)c3)c3c(N)ncnc32)C1 | 17.6 µM | – | 16.3 µM | – | – | IC50 at 72 h (in vitro; huvec): 63.6 µM

More lines, main results first:

Row | IC50 (KYSE-150 cell line) | IC50 (MDA-MB-231) | IC50 (MDA-MB-435) | IC50 at 72 h (in vitro; HUVEC cells) | IC50 (HepG2) | SMILES | further results
23 | 23 µM | 27.2 µM | 27.2 µM | 54.4 µM | 23.7 µM | C=CC(=O)Nc1cc(Cn2ccc3c(Cl)ccnc32)ccc1F | –
24 | 13.8 µM | 25.8 µM | 24.3 µM | 64.5 µM | 24.7 µM | C=CC(=O)Nc1cc(Cn2cnc3ccc(Cl)nc32)ccc1F | –
25 | 15.9 µM | 40.3 µM | 26.2 µM | 79.3 µM | 25.1 µM | C=CC(=O)Nc1cc(Cn2ccc3ncnc(Cl)c32)ccc1F | –
26 | 16.8 µM | 24.4 µM | 18.9 µM | 75.4 µM | 39.4 µM | C=CC(=O)Nc1ccc(C(=O)n2ccc3cc(Br)cnc32)cc1 | –
27 | 8.23 µM | 37.4 µM | 27.4 µM | 75.5 µM | 28.1 µM | C=CC(=O)Nc1cc(Cn2ccc3cc(Br)cnc32)ccc1F | –
28 | 9.84 µM | 29.7 µM | 6.3 µM | 69.7 µM | 16.4 µM | C=CC(=O)Nc1cc(Cn2ncc3ccc(Br)cc32)ccc1F | –
29 | 23.8 µM | 23.8 µM | 20.8 µM | 57.1 µM | 24.2 µM | C=CC(=O)Nc1cc(Cn2cnc3cnc(Cl)nc32)ccc1F | –
30 | 3.78 µM | 10.1 µM | 5.67 µM | 71.4 µM | 15.7 µM | C=CC(=O)Nc1cc(Cn2cnc3c(Cl)ncnc32)ccc1F | –
31 | 5.21 µM | 9.15 µM | 24.1 µM | 54.6 µM | 29.1 µM | C=CC(=O)Nc1cc(Cn2ncc3ccncc32)ccc1F | –
32 | 7.26 µM | 7.21 µM | 24.6 µM | 76.5 µM | 11.1 µM | C=CC(=O)Nc1cc(Cn2ccc3ccc(Br)cc32)ccc1F | –
33 | 7.68 µM | 29.3 µM | 27.1 µM | 60.3 µM | 26.8 µM | C=CC(=O)Nc1cc(Cn2ccc3c(Cl)ncnc32)ccc1F | –

— ChEMBL document CHEMBL5500360, “Discovery of N-(4-((6-(3,5- Dimethoxyphenyl)-9H-purine derivatives as irreversible covalent FGFR inhibitors” (Eur J Med Chem, 2024)
